Molecules are shown by their SMILES.

In the experiment the target is TBK1 (Homo sapiens (Human), UniProt Q9UHD2). Kind of experiment: TBK1 low ATP kinase assay (in vitro assay 1). To be noted: in vitro assay 1, read-out: TBK1 low ATP kinase assay IC50. It is filed as biochemical.
Chain of TBK1 (Q9UHD2 whole entry): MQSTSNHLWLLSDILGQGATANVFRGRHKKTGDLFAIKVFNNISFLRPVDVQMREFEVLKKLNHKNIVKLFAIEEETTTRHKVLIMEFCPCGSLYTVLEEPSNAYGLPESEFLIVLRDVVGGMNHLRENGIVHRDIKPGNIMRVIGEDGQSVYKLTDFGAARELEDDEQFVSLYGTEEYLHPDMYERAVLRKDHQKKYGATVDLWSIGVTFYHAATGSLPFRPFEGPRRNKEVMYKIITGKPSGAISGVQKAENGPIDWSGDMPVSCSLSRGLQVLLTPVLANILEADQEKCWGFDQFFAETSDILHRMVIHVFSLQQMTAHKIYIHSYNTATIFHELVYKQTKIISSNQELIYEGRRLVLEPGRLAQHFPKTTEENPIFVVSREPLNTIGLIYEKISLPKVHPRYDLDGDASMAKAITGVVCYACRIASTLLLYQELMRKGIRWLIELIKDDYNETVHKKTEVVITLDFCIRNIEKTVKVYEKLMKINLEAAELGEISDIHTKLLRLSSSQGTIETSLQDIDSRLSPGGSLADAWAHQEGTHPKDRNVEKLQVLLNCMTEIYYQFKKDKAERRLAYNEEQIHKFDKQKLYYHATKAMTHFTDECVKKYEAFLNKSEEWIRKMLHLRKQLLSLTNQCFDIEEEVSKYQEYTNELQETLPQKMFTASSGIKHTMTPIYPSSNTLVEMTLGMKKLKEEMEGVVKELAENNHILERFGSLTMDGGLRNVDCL
Take `COc1cc(-c2ccc3nc(Nc4cc(CN5CCN(C(=O)CC6CC6)CC5)ccn4)[nH]c3c2)ccn1` [Example 02.05, 2-cyclopropyl-1-{4-[(2-{[6-(2-methoxypyridin-4-yl)-1H-benzimidazol-2-yl]amino}pyridin-4-yl)methyl]piperazin-1-yl}ethanone]: the IC50 (in general, the point on the concentration scale where inhibition reaches its midpoint) came out at 49.8 nM.

For the compound `Cc1noc(-c2ccc3nc(Nc4cc(CN5CCN(C(=O)C6CC6)CC5(C)C)ccn4)[nH]c3c2)n1` [Example 16.04.04, cyclopropyl{3,3-dimethyl-4-[(2-{[6-(3-methyl-1,2,4-oxadiazol-5-yl)-1H-benzimidazol-2-yl]amino}pyridin-4-yl)methyl]piperazin-1-yl}methanone], the IC50 is 497 nM. The figure for `CCN(C)c1cc(-c2ccc3nc(Nc4cc(CN5CCN(C(=O)C6CC6)CC5)ccn4)[nH]c3c2)ncn1` [Example 148.03, cyclopropyl[4-({2-[(6-{6-[ethyl(methyl)amino]pyrimidin-4-yl}-1H-benzimidazol-2-yl)amino]pyridin-4-yl}methyl)piperazin-1-yl]methanone] is 4.8 nM. The figure for `COCc1cc(-c2ccc3nc(Nc4cc(C(C)N5CCN(C(=O)OC(C)(C)C)CC5)ccn4)[nH]c3c2)ncn1` (single isomer, unassigned) [Example 84.01, tert-butyl 4-{(1R or 1S)-1-[2-({6-[6-(methoxymethyl)pyrimidin-4-yl]-1H-benzimidazol-2-yl}amino)pyridin-4-yl]ethyl}piperazine-1-carboxylate] is 1.1 nM.

For the compound `Cc1nnc(-c2ccc3nc(Nc4cc(CN5CCN(C(=O)OC(C)(C)C)CC5)ccn4)[nH]c3c2)o1` [Example 66.01.01, tert-butyl 4-[(2-{[6-(5-methyl-1,3,4-oxadiazol-2-yl)-1H-benzimidazol-2-yl]amino}pyridin-4-yl)methyl]piperazine-1-carboxylate], the IC50 was found to be 33.3 nM. The figure for `CC(c1ccnc(Nc2nc3ccc(-c4ccncn4)cc3[nH]2)c1)N1CCN(C(=O)C2CCC2)CC1` (single isomer, unassigned) [Example 23.05.03.A, cyclobutyl{4-[(1R or 1S)-1-(2-{[6-(pyrimidin-4-yl)-1H-benzimidazol-2-yl]amino}pyridin-4-yl)ethyl]piperazin-1-yl}methanone] is 2.99 nM; for `CN(c1cc(-c2ccc3nc(Nc4cc(CN5CCN(C(=O)C6CC6)CC5)ccn4)[nH]c3c2)ncn1)C1CC1` [Example 157.03, cyclopropyl[4-({2-[(6-{6-[cyclopropyl(methyl)amino]pyrimidin-4-yl}-1H-benzimidazol-2-yl)amino]pyridin-4-yl}methyl)piperazin-1-yl]methanone] it is 7.6 nM; for `COc1cncnc1-c1ccc2nc(Nc3cc(C(C)N4CCN(C(=O)CC5CC5)CC4)ccn3)[nH]c2c1` (racemic) [Example 35.02.02, (rac)-2-cyclopropyl-1-{4-[1-(2-{[6-(5-methoxypyrimidin-4-yl)-1H-benzimidazol-2-yl]amino}pyridin-4-yl)ethyl]piperazin-1-yl}ethanone] it is 11.5 nM. The result for `Cc1cc(-c2ccc3nc(Nc4cc(CN5CCN(C(=O)C6CCC6)CC5)ccn4)[nH]c3c2)ccn1` [Example 01.05, cyclobutyl{4-[(2-{[6-(2-methylpyridin-4-yl)-1H-benzimidazol-2-yl]amino}pyridin-4-yl)methyl]piperazin-1-yl}methanone] reads 70.9 nM; that for `CC(c1ccnc(Nc2nc3ccc(-c4ccncn4)cc3[nH]2)c1)N1CCN(C(=O)C2CC2)CC1` (single isomer, unassigned) [Example 23.05.01.A, cyclopropyl{4-[(1R or 1S)-1-(2-{[6-(pyrimidin-4-yl)-1H-benzimidazol-2-yl]amino}pyridin-4-yl)ethyl]piperazin-1-yl}methanone], 2.05 nM.

For `CCn1cc(-c2ccc3nc(Nc4cc(CN5CCN(C(=O)CC(F)(F)F)CC5)ccn4)[nH]c3c2OCC(C)C)cn1` [Example 52.01, 1-{4-[(2-{[6-(1-ethyl-1H-pyrazol-4-yl)-7-(2-methylpropoxy)-1H-benzimidazol-2-yl]amino}pyridin-4-yl)methyl]piperazin-1-yl}-3,3,3-trifluoropropan-1-one], the half-inhibitory concentration (IC50) worked out at 64.7 nM. For the compound `O=C(CC(F)(F)F)N1CCN(Cc2ccnc(Nc3nc4ccc(-c5ccnc(N6CCOCC6)c5)cc4[nH]3)c2)CC1` [Example 134.02, 3,3,3-trifluoro-1-(4-{[2-({6-[2-(morpholin-4-yl)pyridin-4-yl]-1H-benzimidazol-2-yl}amino)pyridin-4-yl]methyl}piperazin-1-yl)propan-1-one], the IC50 is 11 nM. The figure for `Cc1noc(-c2ccc3nc(Nc4cc(CN5CCN(C(=O)CC6CC6)CC5(C)C)ccn4)[nH]c3c2)n1` [Example 16.04.03, 2-cyclopropyl-1-{3,3-dimethyl-4-[(2-{[6-(3-methyl-1,2,4-oxadiazol-5-yl)-1H-benzimidazol-2-yl]amino}pyridin-4-yl)methyl]piperazin-1-yl}ethanone] is 378 nM; for `COc1ccncc1-c1ccc2nc(Nc3cc(CN4CCN(C(=O)C5CC5)CC4)ccn3)[nH]c2c1` [Example 14.03, cyclopropyl{4-[(2-{[6-(4-methoxypyridin-3-yl)-1H-benzimidazol-2-yl]amino}pyridin-4-yl)methyl]piperazin-1-yl}methanone] it is 550 nM. Turning to `CN(c1cc(-c2ccc3nc(Nc4cc(CN5CCN(C(=O)OC(C)(C)C)CC5)ccn4)[nH]c3c2)ncn1)C1CCC1` [Example 156.01, tert-butyl 4-({2-[(6-{6-[cyclobutyl(methyl)amino]pyrimidin-4-yl}-1H-benzimidazol-2-yl)amino]pyridin-4-yl}methyl)piperazine-1-carboxylate], the IC50 worked out at 38 nM. The result for `CCOc1cc(-c2ccc3nc(Nc4cc(CN5CCN(C(=O)C6CC6)CC5)ccn4)[nH]c3c2)ncn1` [Example 161.03, cyclopropyl{4-[(2-{[6-(6-ethoxypyrimidin-4-yl)-1H-benzimidazol-2-yl]amino}pyridin-4-yl)methyl]piperazin-1-yl}methanone] reads 6.7 nM. The result for `COc1c(-c2ccc3nc(Nc4cc(C(C)N5CCN(C(=O)CC(F)(F)F)CC5)ccn4)[nH]c3c2)ncnc1N1CC(F)(F)C1` (single isomer, unassigned) [Example 113.02, 1-(4-{(1R or 1S)-1-[2-({6-[6-(3,3-difluoroazetidin-1-yl)-5-methoxypyrimidin-4-yl]-1H-benzimidazol-2-yl}amino)pyridin-4-yl]ethyl}piperazin-1-yl)-3,3,3-trifluoropropan-1-one] reads 1.6 nM. The result for `Cc1noc(-c2ccc3nc(Nc4cc(CN5C[C@@H](C)N(C(=O)CC6CC6)C[C@@H]5C)ccn4)[nH]c3c2)n1` [Example 16.02.03, 2-cyclopropyl-1-{(2R,5S)-2,5-dimethyl-4-[(2-{[6-(3-methyl-1,2,4-oxadiazol-5-yl)-1H-benzimidazol-2-yl]amino}pyridin-4-yl)methyl]piperazin-1-yl}ethanone] reads 227 nM; that for `Cc1noc(-c2ccc3nc(Nc4cc(CN5CCN(C(=O)CC(F)(F)F)CC5)ccn4)[nH]c3c2)n1` [Example 16.01.02, 3,3,3-trifluoro-1-{4-[(2-{[6-(3-methyl-1,2,4-oxadiazol-5-yl)-1H-benzimidazol-2-yl]amino}pyridin-4-yl)methyl]piperazin-1-yl}propan-1-one], 109 nM. Turning to `O=C(C1CCC1)N1CCN(Cc2ccnc(Nc3nc4ccc(-c5ccn(CC6CC6)c(=O)c5)cc4[nH]3)c2)CC1` [Example 44.03, 4-{2-[(4-{[4-(cyclobutylcarbonyl)piperazin-1-yl]methyl}pyridin-2-yl)amino]-1H-benzimidazol-6-yl}-1-(cyclopropylmethyl)pyridin-2(1H)-one], the IC50 amounted to 85.8 nM. The figure for `COc1c(-c2ccc3nc(Nc4cc(C(C)N5CCN(C(=O)CC(F)(F)F)CC5)ccn4)[nH]c3c2)ncnc1N1CCCC1` (single isomer, unassigned) [Example 112.03, 3,3,3-trifluoro-1-(4-{(1R or 1S)-1-[2-({6-[5-methoxy-6-(pyrrolidin-1-yl)pyrimidin-4-yl]-1H-benzimidazol-2-yl}amino)pyridin-4-yl]ethyl}piperazin-1-yl)propan-1-one] is 1.4 nM; for `O=C(CC(F)(F)F)N1CCN(Cc2ccnc(Nc3nc4ccc(-c5ncnc(NCC6CCC6)c5F)cc4[nH]3)c2)CC1` [Example 191.02, 1-[4-({2-[(6-{6-[(cyclobutylmethyl)amino]-5-fluoropyrimidin-4-yl}-1H-benzimidazol-2-yl)amino]pyridin-4-yl}methyl)piperazin-1-yl]-3,3,3-trifluoropropan-1-one] it is 95.3 nM. The result for `CC(c1ccnc(Nc2nc3ccc(-c4cc(N5CCC5)ncn4)cc3[nH]2)c1)N1CCN(C(=O)C2CC2)CC1` (single isomer, unassigned) [Example 115.03, (4-{(1R or 1S)-1-[2-({6-[6-(azetidin-1-yl)pyrimidin-4-yl]-1H-benzimidazol-2-yl}amino)pyridin-4-yl]ethyl}piperazin-1-yl)(cyclopropyl)methanone] reads 0.62 nM. The result for `CCOc1cc(-c2ccc3nc(Nc4cc(CN5CCN(C(=O)CC(F)(F)F)CC5)ccn4)[nH]c3c2)ncn1` [Example 161.02, 1-{4-[(2-{[6-(6-ethoxypyrimidin-4-yl)-1H-benzimidazol-2-yl]amino}pyridin-4-yl)methyl]piperazin-1-yl}-3,3,3-trifluoropropan-1-one] reads 7.7 nM.

In the case of `O=C(CC(F)(F)F)N1CCN(Cc2ccnc(Nc3nc4ccc(-c5ccnc(C(F)(F)F)n5)cc4[nH]3)c2)CC1` [Example 27.04, 3,3,3-trifluoro-1-(4-{[2-({6-[2-(trifluoromethyl)pyrimidin-4-yl]-1H-benzimidazol-2-yl}amino)pyridin-4-yl]methyl}piperazin-1-yl)propan-1-one], the IC50 is 197 nM. The result for `Cc1cc(-c2ccc3nc(Nc4cc(CN5CCN(C(=O)CC(F)(F)F)CC5)ccn4)[nH]c3c2)nc(N(C)C)n1` [Example 178.02, 1-(4-{[2-({6-[2-(dimethylamino)-6-methylpyrimidin-4-yl]-1H-benzimidazol-2-yl}amino)pyridin-4-yl]methyl}piperazin-1-yl)-3,3,3-trifluoropropan-1-one] reads 402 nM.

Source of the values: US10894784B2, “Heteroarylbenzimidazole compounds” (BAYER PHARMA AKTIENGESELLSCHAFT, priority 2015, dated 2021).
